“Also recorded” adds a separate entry of the source.
Key:
[1] = system: wild-type mice (C57BL6J strain); assay: Cpd 48/80-induced itch behavioral study in wild-type mice; type: in vivo, mouse
Experimental: On the day of the experiment, animals were allowed to acclimatize to the test chamber for 10 min prior to injection. Mice received a single PO dose of Compound B (or vehicle) as a suspension in 1% methylcellulose at a dose level of 3 mg/kg (dose volume 10 mL/kg). Scratching behavior was monitored over 30 min following a single intra-dermal injection of 10 μL of Cpd 48/80 (10 μg/mL) or vehicle (saline) at 3 h post-dose of the antagonist. A bout of scratching was defined as a hindpaw directed continuous scratching movement at the injection site. The scratching behavior scorer was blinded to treatment.
Supplemental Figure 3: Oral treatment with the potent and selective human MRGPRX2 […]
type mice. The itch behavioral study for wild-type mice (C57BL6J strain) was performed the same way as descripted in the Methods section as for human MRGPRX2 knock-in mice. Compound 48/80 […]
control (18.4 +/- 3.8, n=7) mice (mean +/- SEM; *P < 0.05, Student's t test). As expected, no effect on the scratching behavior (39.8 +/- 12.6, n=6; P=0.795) was observed by oral administration of Compound B to the Compound 48/80 treated mice. […]

MRGPRX2 [2] = molecular target: T1, MRGPRX2 (Homo sapiens, UniProt Q96LB1); assay: Calcium imaging of peritoneal mast cells isolated from human MRGPRX2 KI mice; type: cell-based; details: 100 nM antagonist; Cpd 48/80 1 μg/mL; n ≥ 4
T1 sequence (Q96LB1 1-330): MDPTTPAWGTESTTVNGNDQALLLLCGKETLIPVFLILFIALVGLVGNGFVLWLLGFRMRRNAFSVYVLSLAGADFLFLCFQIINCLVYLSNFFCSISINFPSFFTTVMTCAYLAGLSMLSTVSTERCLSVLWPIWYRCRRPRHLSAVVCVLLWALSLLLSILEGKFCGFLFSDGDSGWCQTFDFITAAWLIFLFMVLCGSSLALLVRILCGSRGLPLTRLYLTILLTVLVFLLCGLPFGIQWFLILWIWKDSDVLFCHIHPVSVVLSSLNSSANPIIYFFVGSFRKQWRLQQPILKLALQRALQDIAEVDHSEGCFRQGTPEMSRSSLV
Experimental: Mouse peritoneal mast cells were purified and imaged as previously described ([4]). Mast cells were resuspended at 5 × 10^5 to 1 × 10^6 cells/mL in DMEM with 10% FBS and recombinant mouse SCF (25 ng/mL) and plated onto glass cover slips coated with fibronectin (30 µg/mL). For imaging, after 2 h of incubation at 37°C, 5% CO2, mast cells were loaded with Fluo-4 along with 0.02% Pluronic F-127 for 30 min at room temperature, washed three times in calcium imaging buffer (CIB), and used immediately for imaging. Cells were used within 2 h of loading. Cells were identified as responding if the [Ca^2+] rose by at least 50% for >10 s.
Figure 6 Oral treatment with the potent and selective MRGPRX2 antagonist, Compound B (3 mg/kg), blocks Cpd 48/80–induced itch response using human MRGPRX2 knock-in mice. […] Average ± SD blood-free concentration of antagonist measured at end of “itch” observation period was 19 ± 16 nM Compound B.

MRGPRX2 [3] = molecular target: T1, MRGPRX2; assay: Substance P-stimulated tryptase release from freshly isolated human skin mast cells; type: cell-based; set-up: human mast cells expressing endogenous MRGPRX2; endogenous in cells; […]; details: read-out: pIC50, inhibition of Substance P-stimulated tryptase release (converted)
Experimental: Tissue was processed, removing adipose and cutting into small segments. Epidermis was removed after incubation with dispase II (2 mg/mL; Sigma-Aldrich) [100 mL/50-cm^2 tissue, base buffer; Dulbecco’s Phosphate-buffered Saline (D-PBS) (Gibco, supplemented with Ca^2+/Mg^2+), amphotericin B (2.5 μg/mL), penicillin (100 units/mL)/streptomycin (100 μg/mL) (Sigma-Aldrich)] for 37°C for 2–4 h followed by 4°C overnight. The remaining dermis was homogenized into a uniform mass and digested with an enzyme cocktail [collagenase IV (10 mg/mL; Gibco), hyaluronidase I-S (5 mg/mL; Sigma), DNAse I (10 μg/ml; Roche)] in base buffer (supplemented with 10% FBS) in a shaking incubator at 37°C for 90 min. […]
For human primary skin mast cell degranulation experiments, both β-hexosaminidase and tryptase were measured. […] Plates were centrifuged, with supernatants collected and lysates generated [cell pellets lysed in 0.1% Tx100 (Sigma), in assay buffer], and then stored at −80°C for later quantification. β-Hexosaminidase activity assay was performed as already described. For tryptase quantification: The amount of total tryptase (α and β tryptase) was quantified using the ImmunoCap Tryptase Test ran on either a Phadia 100 or 250 Immunoassay Analyzer as per the manufacturer’s protocol. […]

For C[C@@H](C(=O)Nc1cnc(Oc2ccc(F)cc2F)cn1)N1CCC(F)(F)[C@@H](c2cc[n+]([O-])cc2)C1 [Compound B], the “Effect on Cpd 48/80-induced scratching behavior” value ([1]; 3 mg/kg oral, wild-type mice) was “did not block; also recorded: no effect was observed”, the Scratching counts ([1]; Compound B 3 mg/kg oral in Compound 48/80 treated wild-type mice, mean +/- SEM, n=6) was 39.8 +/- 12.6 and the “Effect on Cpd 48/80-mediated activation of peritoneal mast cells” value (MRGPRX2 [2]) was “completely antagonize”. The “In vivo PK profile” value (Pharmacokinetic profile) was “good in vivo PK profile”, the Oral bioavailability (Pharmacokinetic profile; in vivo, po) was “good oral bioavailability” and the IC50 (MRGPRX2 [3]) was 0.417 nM.
